How the values were obtained:
BlaR-CTD receptor [1] = biological target: T1, BlaR-CTD receptor (Bacillus licheniformis, UniProt P12287); assay: 3-minute rapid test: BlaR-CTD coupled to gold beads, membrane test device, milk; assay type: binding; conditions: test carried out in 3 minutes, 47° C.; positive when 1st band less intense than 2nd band
T1 construct: uses the BlaR-CTD receptor coupled to gold beads
Experimental: (§1) This example illustrates the detection in milk of antibiotics containing a β-lactam ring, which are controlled by the health authorities. The test described in this example uses the BlaR-CTD receptor coupled to gold beads which serve as labelling agents, and uses a support in the form of a test device comprising a solid support to which membranes are attached.
7 samples of fresh milk containing 0; 1; 2; 3; 4; 5 and 6 ppb of penicillin G, respectively, are prepared. Each of these solutions is then analyzed in the following way:
(§2) A 200 μl aliquot sample of milk and 45.27 μl of solution prepared in Example 1.1.3 are taken and placed in a glass flask. This mixture is incubated for 1 minute at 47° C. A test device is taken and placed vertically in the glass flask such that the first end of the test device is in contact with the mixture and such that the second end rests on the wall of the glass flask. The mixture is left to migrate on the test device, while incubating the assembly for 2 minutes at 47° C.
(§3) An intensity value ranging from 0 to 10 is attributed to the bands detected, the value 10 being given to the most intense band and the value 0 being given to the least intense band. According to this scale, a value of 6 is assigned to the reference band. The intensity of the signal observed in the first band is inversely proportional to the amount of penicillin G present in the sample.
(§4) In this example, when the first band has an intesity less than that of the second band, the test is considered as being positive.

BlaR-CTD receptor [2] = biological target: T1, BlaR-CTD receptor; assay: 5-minute test: BlaR-CTD coupled to gold beads, membrane test device, milk; assay type: binding; conditions: 47° C.; for concentration detected in a sample of milk: test carried out in 5 minutes, positive when 1st band less intense than 2nd band; for Intensity 1st band: 5-minute test, scale 0 to 10, reference band 6
Experimental: as §1
6 samples of fresh milk containing 0; 2; 4; 6; 8 and 10 ppb of cloxacillin, respectively, are prepared. Each of these solutions is then analyzed in the following way.
as §2, with “3 minutes” for “1 minute”
as §3, with “cloxacillin” for “penicillin G”
as §4

[3] = system: protein isolated from an antibiotic-sensitive microorganism, such as Bacillus stearothermophilus; conditions: Example 1 of European Patent Application 593 112; cited from earlier work
BlaR-CTD receptor [4] = biological target: T1, BlaR-CTD receptor; assay: 9-minute test: BlaR-CTD coupled to gold beads, membrane test device, milk; assay type: binding; conditions: test carried out in 9 minutes, 47° C.; positive when 1st band less intense than 2nd band
Experimental: as §1
6 samples of fresh milk containing 0; 4; 6; 8; 10 and 12 ppb of cephapirin, respectively, are prepared. Each of these solutions is then analyzed in the following way.
as §2, with “7 minutes” for “1 minute”
as §3, with “cephapirin” for “penicillin G”
as §4

[5] = biological target: T2, BlaR-CTD receptor in the form of two fusion proteins with alkaline phosphatase and peroxidase (Bacillus licheniformis, UniProt P12287); assay: Example 3: BlaR-CTD fusion proteins with alkaline phosphatase and peroxidase, cephalosporin C microplate, milk; assay type: binding; conditions: absorbance at 405 nm, 47° C., at the control thresholds required by the US authorities
T2 construct: uses the BlaR-CTD receptor in the form of two fusion proteins with alkaline phosphatase and peroxidase, respectively; alkaline phosphatase, chemically coupled (Boehringer-Mannheim 1464752); peroxidase, chemically coupled (Boehringer-Mannheim 1428861)
T2 sequence (P12287 354-601): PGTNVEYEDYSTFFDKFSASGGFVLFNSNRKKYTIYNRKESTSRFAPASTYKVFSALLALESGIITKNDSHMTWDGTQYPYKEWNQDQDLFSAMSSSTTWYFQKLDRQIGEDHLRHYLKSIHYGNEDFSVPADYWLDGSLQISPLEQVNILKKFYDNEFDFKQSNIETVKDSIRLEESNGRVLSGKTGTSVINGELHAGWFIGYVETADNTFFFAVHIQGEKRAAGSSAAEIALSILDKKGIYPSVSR
Description: This example illustrates the detection in milk of 3 antibiotics containing a β-lactam ring which are controlled by the health authorities. The test described in this example uses the BlaR-CTD receptor in the form of two fusion proteins with alkaline phosphatase and peroxidase, respectively, and uses a support in the form of a microplate.
Polystyrene microplates with high protein adsorption, of the brand name NUNK (Immuno Plate: Maxisorp type) or of the brand name GREINER (microlon 600, reference 705071), are used. The microplate cuvettes are washed with 150 mM, pH 7.2 PBS buffer. Next, an aliquot of the solution prepared in Example 3.3.1. is incubated for 24 hours at 4° C. in the cuvettes. After incubation, the cuvettes are washed three times with 150 mM, pH 7.2 PBS buffer, 0.1% Tween-20. The tube is then saturated for two hours at 20° C. with 150 mM, pH 7.2 PBS saturation buffer, 5% BSA. After washing three times with washing buffer, the tubes are dried and stored at 4° C. away from moisture.
For the cuvettes intended for the BlaR-CTD-alkaline phosphatase recognition agent, the washing buffer used is 1 M, pH 9.8 diethanolamine, 0.5 mM MgCl2: for the cuvettes intended for the BlaR-CTD-peroxidase recognition agent, the washing buffer used is 50 mM, pH 5 potassium phosphate.
1.4 picomol of labelled recognition agent are incubated in the presence of 100 μl of doped milk for 5 minutes at 47° C. The milk is transferred using a pipette into a cuvette which has been pretreated as indicated in Example 2.3. The milk is then incubated for 2 minutes at 47° C. […] The plate is then placed in an automatic spectrophotometer for ELISA plates, the wavelength being set at 405 nm.

T1 sequence (P12287 354-601): as above

CC1(C)S[C@@H]2[C@H](NC(=O)[C@H](N)c3ccccc3)C(=O)N2[C@H]1C(=O)O [ampicillin]
concentration detected in a sample of milk (BlaR-CTD receptor [1]): 5 ppb | concentration detected in a sample of milk (BlaR-CTD receptor [2]): 4 ppb | concentration detected [3]: 10 ppb | concentration detected in a sample of milk (BlaR-CTD receptor [4]): 4 ppb

CCOc1ccc2ccccc2c1C(=O)N[C@@H]1C(=O)N2[C@@H]1SC(C)(C)[C@@H]2C(=O)O [nafcillin]
concentration detected in a sample of milk (BlaR-CTD receptor [2]): 20 ppb

Cc1onc(-c2c(Cl)cccc2Cl)c1C(=O)N[C@@H]1C(=O)N2[C@@H]1SC(C)(C)[C@@H]2C(=O)O [dicloxacillin]
concentration detected in a sample of milk (BlaR-CTD receptor [2]): 8 ppb

Cc1onc(-c2ccccc2Cl)c1C(=O)N[C@@H]1C(=O)N2[C@@H]1SC(C)(C)[C@@H]2C(=O)O [cloxacillin]
concentration detected in milk [5]: 10 ppb | concentration detected in a sample of milk (BlaR-CTD receptor [1]): less than 10 ppb | Intensity 1st band (BlaR-CTD receptor [2]; 2 ppb cloxacillin in milk): 6 | Intensity 1st band (BlaR-CTD receptor [2]; 4 ppb cloxacillin in milk): 5 | Intensity 1st band (BlaR-CTD receptor [2]; 6 ppb cloxacillin in milk): 3 | Intensity 1st band (BlaR-CTD receptor [2]; 8 ppb cloxacillin in milk): 3 | Intensity 1st band (BlaR-CTD receptor [2]; 10 ppb cloxacillin in milk): 3 | concentration detected in a sample of milk (BlaR-CTD receptor [2]): less than 4 ppb | concentration detected in a sample of milk (BlaR-CTD receptor [4]): 4 ppb

CC1(C)S[C@@H]2[C@H](NC(=O)[C@H](N)c3ccc(O)cc3)C(=O)N2[C@H]1C(=O)O [amoxicillin]
concentration detected in a sample of milk (BlaR-CTD receptor [1]): 5 ppb | concentration detected in a sample of milk (BlaR-CTD receptor [2]): 4 ppb | concentration detected [3]: 5 ppb | concentration detected in a sample of milk (BlaR-CTD receptor [4]): 4 ppb

CO/N=C(\C(=O)N[C@@H]1C(=O)N2C(C(=O)[O-])=C(C[n+]3cccc4c3CCCC4)CS[C@H]12)c1csc(N)n1 [cefquinone]
concentration detected in a sample of milk (BlaR-CTD receptor [2]): less than 20 ppb

Cc1nnc(SCC2=C(C(=O)O)N3C(=O)[C@@H](NC(=O)Cn4cnnn4)[C@H]3SC2)s1 [cefazoline]
concentration detected in a sample of milk (BlaR-CTD receptor [2]): 60 ppb | concentration detected in a sample of milk (BlaR-CTD receptor [4]): 45 ppb

Cc1onc(-c2ccccc2)c1C(=O)N[C@@H]1C(=O)N2[C@@H]1SC(C)(C)[C@@H]2C(=O)O [oxacillin]
concentration detected in a sample of milk (BlaR-CTD receptor [2]): 8 ppb

Reference: patent US8106155B2, “Test kit for determining process for determining antibiotics containing a beta-lactam ring in a biological fluid” (Neogen Corporation, priority 1998, dated 2012)
